From article PMC6271423, “Synthesis and Biological Evaluation of New Pyridone-Annelated Isoindigos as Anti-Proliferative Agents” (Molecules, 2014)
Blank lines part the entries; values can stand above or below the compound they belong to.

Assays:
[1] = tested on: K562 cells; assay: MTT cell viability (antiproliferative) assay in K562 cells; format: cell-based, human; details: for cytotoxicity / antiproliferative activity to K562 cells (in words): 0.0 to 30.0 µM, 24 h; for IC50: Homo sapiens
Procedure: The antiproliferative activities of the synthesized molecules were initially evaluated in human chronic […] leukemia cells K562. The effect of the six derivatives on the viability of K562 was assessed by an MTT assay as described in the methods. In all MTT tests performed, the known antiproliferative agent etoposide was used as a positive control to validate the accuracy of the assay.
Figure 2 The isoindigo compounds 3b and 3d inhibit the growth of K562 cells in a dose- and time-dependent manner. (A) K562 cells were treated with varying concentrations of compounds 3a to 3f (0.0 to 30.0 µM) for 24 h and the antiproliferative activity was analyzed by MTT assay as described in the methods. (B) K562 cells were incubated with 12.0 µM of either compound 3b or 3d for different periods of time (0 to 72 h) and cell viability was assessed by the MTT assay. The controls (in the presence or absence of the solvent vehicle DMSO) represent cells incubated under similar conditions in the absence of the test compound. The percentage of cell viability in each sample was expressed relative to untreated control, which was considered as a 100%. K562 cells were also treated with 4.0, 8.0 and 12.0 µM etoposide under similar conditions as positive controls. The results shown represent the mean ± SD of three independent trials.
Figure 3 The IC50 values of compounds 3b and 3d determined in K562 cells at different time points. K562 cells were treated with varying concentrations of compounds 3b or 3d (0.0 to 40.0 µM) for different periods of time (24, 48 and 72 h) and their antiproliferative activity was analyzed by MTT viability assay. The sigmoidal curves shown were obtained by plotting the percentages of viability (mean ± SD of three independent experiments, three replicates for each concentration in every experiment were used) versus logarithmic molar concentrations of the test compounds at the three different time points, and the IC50 value was determined using a non-linear regression analysis of GraphPad Prism 6 software.
The human chronic myelogenous leukemia K562 (ATCC® CCL-243^TM) and human acute monocytic leukemia THP-1 (ATCC® TIB-202^TM) suspension cells were maintained in RPMI-1640, while adherent HepG2 (human hepatocellular carcinoma, ATCC® HB-8065^TM), MCF7 (human breast adenocarcinoma, ATCC® HTB-22^TM) were cultured in DMEM medium. Adherent Caco-2 (human colorectal adenocarcinoma, ATCC® HTB-37^TM), HEK-293 (human embryonic epithelial cells, ATCC® CRL-1573^TM) and L-929 (mouse subcutaneous connective tissue fibroblast, ATCC® CCL-1^TM) cells were cultured in MEM medium. The media were supplemented with 10% (v/v) heat inactivated FBS, penicillin G (100 U/mL) and streptomycin ([…]), and cells were incubated at 37 °C in a 5% CO2 humidified incubator. The media were changed every 2–3 days and subcultured when the cell population density reached to 70%–80% confluence. Cells were seeded at an appropriate density according to each experimental design.
The antiproliferative activity of the synthesized compounds was assessed using the MTT cell viability assay. Briefly, 2 × 10^4 of the non-adherent K562 or THP-1 cells, in a 100 μL of RPMI-1640 medium, or […] of adherent HepG2, MCF-7, Caco-2, HEK-293 or L-929, in a same volume of the proper media, were seeded in each well of a 96 well-plate. After 24 h, the media was removed by aspiration and replaced by fresh media containing the test compound at varying concentrations (0.0 to 40.0 µM, for cancerous cells) or (0.0 to 80.0 µM, for noncancerous cells), and incubated for the desired time in a 5% CO2-cell culture incubator. Alternatively, cultured K562 cells were incubated with 12.0 µM of the test compound for different time-points (0, 2, 4, 8, 12, 24, 48 and 72 h) before analysis. […]

[2] = tested on: HEK-293 cells; assay: MTT cell viability assay in noncancerous HEK-293 cells; format: cell-based; details: Homo sapiens, HEK293, 48 h incubation
Excerpt: (§1) In addition to the effect on K562 cells, we have also evaluated the potential antiproliferative activities of compounds 3b and 3d on different hematological and solid tumor cell lines. […] To further characterize the cytotoxicity of compounds 3b and 3d, we evaluated their effects on inducing apoptosis of the cultured K562 cells (Figure 5).
(§2) Figure 4 Compounds 3b and 3d inhibit the growth of various hematological and solid tumor cell lines but not noncancerous cells at low IC50 values. […]
(§3) The antiproliferative activity of the synthesized compounds was assessed using the MTT cell viability assay. […] Absorbance was measured within 60 min at 595 nm using an E Max Precision Microplate reader (Molecular Devices, Sunnyvale, CA, USA). Cell viability at a given concentration was determined from the following expression: Percentage Viability = (Atest compound − Ablank/Acontrol − Ablank) × 100 (1) where Atest compound = absorbance of wells with cells exposed to test compound in media; Acontrol = absorbance of wells with cells in media and Ablank = absorbance of wells with DMSO only, without cells. […]

[3] = tested on: THP-1 cells; assay: MTT cell viability (antiproliferative) assay in THP-1 cells; format: cell-based; details: Homo sapiens, 48 h incubation
Excerpt: as §1, §2, §3

[4] = tested on: L-929 cells; assay: MTT cell viability assay in noncancerous L-929 fibroblasts; format: cell-based; details: Mus musculus, L929, 48 h incubation
Excerpt: as §1, §2, §3

[5] = tested on: Caco-2 cells; assay: MTT cell viability (antiproliferative) assay in Caco-2 cells; format: cell-based; details: Homo sapiens, 48 h incubation
Excerpt: as §1, §2, §3

[6] = tested on: HepG2 cells; assay: MTT cell viability (antiproliferative) assay in HepG2 cells; format: cell-based; details: Homo sapiens, 48 h incubation
Excerpt: as §1, §2, §3

[7] = tested on: MCF-7 cells; assay: MTT cell viability (antiproliferative) assay in MCF-7 cells; format: cell-based; details: Homo sapiens, MCF7, 48 h incubation
Excerpt: as §1, §2, §3

[8] = set-up: method as in PMID 16330129; details: cited from earlier work

melting point: > 300 °C
Compound: CCn1cc(C(=O)O)c(=O)c2c3c(ccc21)NC(=O)/C3=C1/C(=O)Nc2cc(Br)ccc21 [3e, (E)-1-(6'-Bromo-2'-oxoindolin-3'-ylidene)-6-ethyl-2,3,6,9-tetrahydro-2,9-dioxo-1H-pyrrolo[3,2-f]quinoline-8-carboxylic acid]
cytotoxicity / antiproliferative activity to K562 cells (in words) [1]: significantly abolished the cytotoxicity

IC50 [3]: 9.1 ± 1 µM
IC50 [5]: 19 ± 1.37 µM
IC50 [6]: 13.9 ± 2.01 µM
IC50 [7]: 15.7 ± 1.94 µM
IC50 ([1]; K562, 24 h incubation): 19.1 ± 1.8 µM
IC50 ([1]; K562, 48 h incubation): 8.66 ± 0.81 µM
IC50 ([1]; K562, 72 h incubation): 6.92 ± 0.84 µM
Compound: CCn1cc(C(=O)O)c(=O)c2c3c(ccc21)NC(=O)/C3=C1/C(=O)Nc2ccc(Br)cc21 [3d, (E)-1-(5'-Bromo-2'-oxoindolin-3'-ylidene)-6-ethyl-2,3,6,9-tetrahydro-2,9-dioxo-1H-pyrrolo[3,2-f]quinoline-8-carboxylic acid]
IC50 [2]: 52.5 ± 4.7 µM
IC50 [4]: 71.9 ± 5.22 µM
cytotoxicity / antiproliferative activity to K562 cells (in words) [1]: significant dose-dependent cytotoxicity

IC50 [3]: 8.21 ± 0.62 µM
IC50 [5]: 14.6 ± 1.32 µM
IC50 [6]: 8.97 ± 0.84 µM
IC50 [7]: 11.9 ± 0.67 µM
IC50 ([1]; K562, 24 h incubation): 15.1 ± 1.27 µM
IC50 ([1]; K562, 48 h incubation): 6.6 ± 0.58 µM
IC50 ([1]; K562, 72 h incubation): 4.02 ± 0.52 µM
Compound: CCn1cc(C(=O)O)c(=O)c2c3c(ccc21)NC(=O)/C3=C1/C(=O)Nc2ccc(Cl)cc21 [3b, (E)-1-(5'-Chloro-2'-oxoindolin-3'-ylidene)-6-ethyl-2,3,6,9-tetrahydro-2,9-dioxo-1H-pyrrolo[3,2-f]quinoline-8-carboxylic acid]
IC50 [2]: 30.7 ± 2.52 µM
IC50 [4]: 40.4 ± 3.15 µM
cytotoxicity / antiproliferative activity to K562 cells (in words) [1]: significant dose-dependent cytotoxicity

Second part, the compound before the results:

Compound: CCn1cc(C(=O)O)c(=O)c2c3c(ccc21)NC(=O)/C3=C1/C(=O)Nc2ccccc21 [3a, (E)-6-Ethyl-2,9-dioxo-1-(2'-oxoindolin-3'-ylidene)-2,3,6,9-tetrahydro-1H-pyrrolo[3,2-f]quinoline-8-carboxylic acid]
melting point: > 300 °C
cytotoxicity / antiproliferative activity to K562 cells (in words) [1]: significantly inhibited their antiproliferative activities

Compound: CCn1cc(C(=O)O)c(=O)c2c3c(ccc21)NC(=O)/C3=C1/C(=O)Nc2ccc([N+](=O)[O-])cc21 [3f, (E)-6-Ethyl-1-(5'-nitro-2'-oxoindolin-3'-ylidene)-2,9-dioxo-2,3,6,9-tetrahydro-1H-pyrrolo[3,2-f]quinoline-8-carboxylic acid]
melting point: > 300 °C
cytotoxicity / antiproliferative activity to K562 cells (in words) [1]: significantly inhibited their antiproliferative activities

Compound: CCn1cc(C(=O)O)c(=O)c2c3c(ccc21)NC(=O)/C3=C1/C(=O)Nc2cc(Cl)ccc21 [3c, (E)-1-(6'-Chloro-2'-oxoindolin-3'-ylidene)-6-ethyl-2,3,6,9-tetrahydro-2,9-dioxo-1H-pyrrolo[3,2-f]quinoline-8-carboxylic acid]
melting point: > 300 °C
cytotoxicity / antiproliferative activity to K562 cells (in words) [1]: significantly abolished the cytotoxicity

Compound: CC(=O)OC1COC(N2C(=O)C(=C3C(=O)Nc4ccccc43)c3ccccc32)C(OC(C)=O)C1OC(C)=O [Natura^TM, 1-(β-D-triacetylxylopyranosyl) isoindigo]
solubility in water (in words) [8]: almost completely insoluble in water
